{
  "source": "patent US20250049819A1",
  "about": "“METHODS FOR TREATING AND PREVENTING C. DIFFICILE INFECTION” (Paratek Pharmaceuticals, Inc., priority 2016, published 2025)",
  "key": {"[1]": {"system": "C. difficile strains (N = 27)", "assay": "MIC by broth microdilution against C. difficile clinical isolates", "format": "cell-based", "details": "Clostridioides difficile, 27 isolates", "description": "(§1) The activity of omadacycline was tested in vitro against 27 clinical isolates of C. difficile. […] The experiments were carried out using broth and agar microdilution methods according to Clinical and Laboratory Standards Institute (CLSI) guidelines. […] Each test was run in duplicate."}, "[2]": {"system": "C. difficile strains (N = 27)", "assay": "MIC by agar dilution against C. difficile clinical isolates", "format": "cell-based", "details": "Clostridioides difficile, 27 isolates", "description": "as §1"}, "[3]": {"system": "C. difficile strain ATCC 43596", "assay": "MIC90 against the infection model strain", "format": "cell-based", "details": "Clostridioides difficile, ATCC43596"}, "[4]": {"system": "C. difficile strain ATCC 43596", "assay": "Hamster model of C. difficile-associated diarrhea, survival", "format": "in vivo"}, "[5]": {"system": "gut microflora populations", "assay": "In vitro human gut model, gut microflora populations (Example 4)", "format": "cell-based", "description": "(§2) The gut model was inoculated with pooled fecal slurry (5 volunteers ≥60 years of age with no history of antibiotic therapy in the previous 3 months) and left for 2 weeks to allow the bacterial populations to achieve steady state. A single inoculum (˜10^7 cfu/mL) of C. difficile spores (PCR ribotype 027 strain 210) was added into vessel 1 of the gut model on day 14. One week later, on day 21, a second aliquot of C. difficile spores was added, and antibiotic instillation commenced. Model A (LHS) was exposed to moxifloxacin (43 mg/L, once daily, for 7 days) and Model B (RHS) was exposed to omadacycline (430 mg/L, once daily, for 7 days) commenced on day 21.\n(§3) Bacterial populations in the gut model were monitored using selective agars to count viable bacterial colonies. Populations were monitored every other day for the first 2 weeks until the steady state was reached, and daily thereafter. C. difficile populations were monitored in all three vessels, and all other bacterial groups (total obligate anaerobes, total facultative anaerobes, lactose fermenting Enterobacteriaceae, Enterococci, total Clostridia, Lactobacilli, Bifidobacteria and B. fragilis group) were monitored in vessels 2 and 3 only. Vessel 3, which represents the distal colon, is of most physiological relevance in terms of propensity to induce CDI. C. difficile total viable counts and spores counts were monitored using viable counting and a differential alcohol shock viable count on selective agars. From day 14 onwards C. difficile cytotoxin was measured using a quantitative VERO cell cytotoxicity assay. Samples of 1 mL each were centrifuged at 16,000×g for 15 minutes, and the supernatants were removed. Six 1:10 serial dilutions (to 10^−6) of culture supernatants from the gut model were prepared. Twenty microliters of the appropriate dilution was added to VERO cell monolayers and a further 20 μL of C. sordellii antitoxin (diluted 1:10 in sterile distilled water) was placed in the corresponding antitoxin row. Monolayers were examined after 24 and 48 hours of incubation in 5% CO2, with a positive result indicated by the presence of cell rounding with concurrent neutralization of the effect by C. sordellii antitoxin. Cytotoxin titers (relative units, RU) were an arbitrary log10 scale, and the cytotoxin titer is reported in the highest dilution with >70% cell rounding, i.e. 10^0=1 RU, 10^−1=2 RU, 10^−2=3 RU. Samples were taken daily from day 21 onwards to determine antimicrobial concentrations in the gut model vessels by a bioassay. Concentrations of moxifloxacin were determined using Isosensitest agar with Escherichia coli as the indicator organism. Concentrations of omadacyline were determined using Wilkins Chalgren agar with Kocuria rhizophila as the indicator organism."}, "[6]": {"system": "C. difficile PCR ribotype 027 strain 210", "assay": "In vitro human gut model, C. difficile germination, proliferation and toxin production (Example 4)", "format": "cell-based", "description": "as §2, §3"}, "[7]": {"assay": "Elimination of an oral dose via the biliary/fecal pathway", "format": "in vivo"}, "[8]": {"details": "oral 50 mg/kg/day for 5 days, N=10"}, "[9]": {"details": "vessels 2 and 3, once daily for 7 days"}},
  "note": "Where two headings read alike, the source gives them in different places.",
  "data": [
    {"smiles": "CN(C)c1cc(CNCC(C)(C)C)c(O)c2c1C[C@H]1C[C@H]3[C@H](N(C)C)C(O)=C(C(N)=O)C(=O)[C@@]3(O)C(O)=C1C2=O", "note": "(stereo in doubt) [Omadacycline]", "values": [
      {"measurement": "MIC90", "setting": "[1]; read-out: MIC90 by broth dilution", "value": 0.06, "unit": "mg/L"},
      {"measurement": "MIC50", "setting": "[1]; Wilkins-Chalgren broth, 48 hours anaerobic", "value": 60, "unit": "mg/L"},
      {"measurement": "MIC90", "setting": "[1]; Wilkins-Chalgren broth, 48 hours anaerobic, read-out: Broth Microdilution MIC90", "value": 60, "unit": "mg/L"},
      {"measurement": "MIC90", "setting": "[2]", "value": 0.12, "unit": "mg/L"},
      {"measurement": "MIC90", "setting": "[3]; read-out: MIC90", "value": 0.06, "unit": "mg/L"},
      {"measurement": "MIC90", "setting": "[3]; replicate plate A, read-out: MIC90 Plate A", "value": 0.06, "unit": "mg/L"},
      {"measurement": "MIC90", "setting": "[3]; replicate plate B, read-out: MIC90 Plate B", "value": 0.06, "unit": "mg/L"},
      {"measurement": "percent survival at day 2 post infection", "setting": "[4]; oral 50 mg/kg/day for 5 days (clindamycin: 10 mg/kg SC pre-treatment only), N=10", "value": 100, "unit": "%"},
      {"measurement": "Median Survival", "setting": "[4]; oral 50 mg/kg/day for 5 days (clindamycin: pre-treatment only), followed up to 21 days", "value": 12, "unit": "days"},
      {"measurement": "percent survival by day 3", "setting": "[4]; [8]", "value": 60, "unit": "%"},
      {"measurement": "percent survival on day 13", "setting": "[4]; [8]", "value": 40, "unit": "%"},
      {"measurement": "percent survival on day 16", "setting": "[4]; [8]", "value": 0, "unit": "%"},
      {"measurement": "recovery of populations after end of dosing", "setting": "[5]; all populations", "value": "returned to pre-antibiotic exposure levels by the end of the experiment"},
      {"measurement": "Enterobacteriaceae populations", "setting": "[5]; particularly in vessel 2", "value": "increased during omadacycline exposure"},
      {"measurement": "decline in B. fragilis group", "setting": "[5]; [9]", "value": "~8", "unit": "log10 cfu/mL"},
      {"measurement": "decline in Bifidobacteria", "setting": "[5]; [9]", "value": "~8", "unit": "log10 cfu/mL"},
      {"measurement": "decline in Enterococcus spp. / Enterococci populations", "setting": "[5]; [9]", "value": "~6", "unit": "log10 cfu/mL"},
      {"measurement": "decline in Lactobacilli", "setting": "[5]; [9]", "value": "~6", "unit": "log10 cfu/mL"},
      {"measurement": "decrease in Clostridia", "setting": "[5]; [9]", "value": "~5", "unit": "log10 cfu/mL"},
      {"measurement": "decrease in lactose fermenting Enterobacteriaceae", "setting": "[5]; [9]", "value": "~5", "unit": "log10 cfu/mL"},
      {"measurement": "overall decline in total anaerobe populations", "setting": "[5]; [9]", "value": "~5", "unit": "log10 cfu/mL"},
      {"measurement": "total facultative anaerobes", "setting": "[5]; [9]", "value": "remained fairly stable throughout"},
      {"measurement": "C. difficile spore germination / vegetative cell proliferation", "setting": "[6]; all three vessels", "value": "no vegetative cell proliferation observed"},
      {"measurement": "C. difficile toxin detection (VERO cell cytotoxicity assay)", "setting": "[6]; all vessels", "value": "No toxin was detected"},
      {"measurement": "signs of simulated CDI", "setting": "[6]; once daily for 7 days, omadacycline 430 mg/L, moxifloxacin 43 mg/L", "value": "did not lead to any signs of simulated CDI"},
      {"measurement": "proportion of the absorbed omadacycline eliminated in the gut (biliary/fecal elimination pathway)", "setting": "[7]", "value": "approximately 60%"}
    ]}
  ]
}
